# Laboratory results reported in PubChem BioAssay (NCI).
#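 Step 1: Grow cells in 96-well plates. Step 2: Expose to compound for 48 hours at 5 concentrations. Step 3: Interpolate endpoints linearly; if unreached, use highest concentration. Here, GI50 denotes the concentration required for 50% inhibition of growth. TGI denotes the concentration required for complete inhibition of growth.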
# Legend:
# Experiment in all cases: inhibition of tumour cell growth, NCI panel, 48 h
# A498 renal = tested on: A498 renal
# HCT-116 colon = tested on: HCT-116 colon
# HL-60(TB) leukemia = tested on: HL-60(TB) leukemia
# K-562 leukemia = tested on: K-562 leukemia
# NCI-H460 lung = tested on: NCI-H460 lung
# NCI-H522 lung = tested on: NCI-H522 lung
# NCI/ADR-RES ovarian = tested on: NCI/ADR-RES ovarian
# SF-295 CNS = tested on: SF-295 CNS
# SK-MEL-28 melanoma = tested on: SK-MEL-28 melanoma
# TK-10 renal = tested on: TK-10 renal
SMILES,GI50 (A498 renal),TGI (A498 renal),GI50 (HCT-116 colon),TGI (HCT-116 colon),GI50 (HL-60(TB) leukemia),TGI (HL-60(TB) leukemia),GI50 (K-562 leukemia),TGI (K-562 leukemia),GI50 (NCI-H460 lung),TGI (NCI-H460 lung),GI50 (NCI-H522 lung),TGI (NCI-H522 lung),GI50 (NCI/ADR-RES ovarian),TGI (NCI/ADR-RES ovarian),GI50 (SF-295 CNS),TGI (SF-295 CNS),GI50 (SK-MEL-28 melanoma),TGI (SK-MEL-28 melanoma),GI50 (TK-10 renal),TGI (TK-10 renal)
Cc1c(Br)c(Br)c2c3c1nc(N1CCNCC1)n3CCC2,1.44 µM,2.99 µM,1.73 µM,3.19 µM,2.16 µM,5.31 µM,2.14 µM,5.49 µM,1.7 µM,3.22 µM,1.49 µM,3.14 µM,1.8 µM,3.82 µM,1.86 µM,3.68 µM,1.79 µM,3.39 µM,1.56 µM,3.12 µM
NC(=O)NC(=O)Nc1ccc(Br)cc1,–,> 100 µM,–,> 49.6 µM,–,> 6.62 µM,–,> 100 µM,–,> 36.4 µM,–,> 40 µM,–,> 63.5 µM,–,> 100 µM,–,> 17.7 µM,–,> 100 µM
CCN(CC)CCOc1ccc2c(-c3ccccc3)c(-c3ccc(OC)cc3)c(=O)oc2c1,3.13 µM,16.4 µM,2.78 µM,10.5 µM,1.7 µM,3.98 µM,2.55 µM,10.5 µM,2.5 µM,6.06 µM,4.92 µM,18.5 µM,4.51 µM,17.5 µM,1.69 µM,3.62 µM,1.96 µM,4.38 µM,11.6 µM,25.2 µM
CC(C)(Oc1cccc(N2CCC[C@@H](C(=O)N(Cc3ccc(-c4cn[nH]c4)cc3)C3CC3)C2)c1)C(=O)N1CCNCC1,16 µM,30.1 µM,12.6 µM,27.8 µM,13.8 µM,> 100 µM,3.5 µM,18.4 µM,12.3 µM,27.2 µM,12.3 µM,26 µM,24.1 µM,73.6 µM,12.5 µM,26 µM,13.1 µM,26.1 µM,14.8 µM,28.4 µM
CC1(C)CCC2(C(=O)O)C(O)CC3(C)C(=CCC4C5(C)CCC(OC6OCC(O)C(O)C6OC6OCC(O)C(O)C6OC6OCC(O)C(OC7OC(CO)C(O)C(O)C7O)C6O)C(C)(C)C5CCC43C)C2C1 (stereo not given),–,59 µM,–,> 100 µM,–,48.3 µM,–,70.6 µM,–,> 100 µM,–,49.4 µM,–,> 100 µM,–,42.8 µM,–,> 100 µM,–,> 100 µM
N#Cc1c(-c2ccccc2)nc(SCC(O)CN2CCOCC2)nc1N1CCOCC1 (stereo not given),2.43 µM,23 µM,32.4 µM,> 100 µM,4.05 µM,15.3 µM,20 µM,> 100 µM,7.03 µM,> 100 µM,18.3 µM,> 100 µM,39.5 µM,> 100 µM,5.49 µM,> 100 µM,11.2 µM,> 100 µM,10.9 µM,> 100 µM
O=C(NNC1=NS(=O)(=O)c2ccccc2N1c1ccccc1)c1cnccn1,> 100 µM,> 100 µM,> 100 µM,> 100 µM,> 100 µM,> 100 µM,> 100 µM,> 100 µM,> 100 µM,> 100 µM,> 100 µM,> 100 µM,> 100 µM,> 100 µM,> 100 µM,> 100 µM,> 100 µM,> 100 µM,> 100 µM,> 100 µM
N#Cc1ncc(-c2ccc(C(F)(F)F)cc2)c(NC2CCCCCC2)n1,21.4 µM,> 100 µM,5.25 µM,> 100 µM,10.4 µM,> 100 µM,9.03 µM,> 100 µM,11.1 µM,> 100 µM,6.02 µM,> 100 µM,18.1 µM,> 100 µM,27.5 µM,> 100 µM,71.5 µM,> 100 µM,91 µM,> 100 µM
O=C(O)c1cc(-c2ccc(-c3ccccc3)cc2)nc2cc3ccccc3cc12,–,> 100 µM,–,> 100 µM,–,> 100 µM,–,> 100 µM,–,> 100 µM,–,> 100 µM,–,> 100 µM,–,> 100 µM,–,> 100 µM,–,> 100 µM
Cn1cc(Nc2nccc(-c3ccc4c(c3)CN(C3COC3)CC[C@H]4NC(=O)c3cn(C(C)(C)C)nn3)n2)cn1,76.5 µM,> 100 µM,73.6 µM,> 100 µM,> 100 µM,> 100 µM,28 µM,> 100 µM,85.9 µM,> 100 µM,96.1 µM,> 100 µM,> 100 µM,> 100 µM,> 100 µM,> 100 µM,46.9 µM,> 100 µM,59.5 µM,> 100 µM
Cc1ccc(/C=C(/C#N)n2nnc3cccc(F)c32)cc1,0.226 µM,0.877 µM,0.379 µM,6.54 µM,0.295 µM,4.42 µM,0.168 µM,> 100 µM,0.35 µM,2.13 µM,0.194 µM,14.9 µM,0.159 µM,0.848 µM,0.368 µM,7.39 µM,0.902 µM,18.1 µM,1.22 µM,13 µM
O=C(Nc1nc2ccc(OC(F)(F)F)cc2s1)c1ccc(F)cc1,2.93 µM,9.2 µM,2.98 µM,10.1 µM,3.04 µM,9.29 µM,3.58 µM,> 100 µM,3.02 µM,20.7 µM,3.14 µM,11.4 µM,3.35 µM,16.4 µM,2.54 µM,9.35 µM,3.6 µM,> 100 µM,4.06 µM,> 100 µM
